Test results published in publication PMC6112376, “Comprehensive Analyses and Prioritization of Tox21 10K Chemicals Affecting Mitochondrial Function by in-Depth Mechanistic Studies” (Environmental Health Perspectives, 2018).
Where two headings read alike, the source gives them in different places.

Key:
[1] = test system: hNSC; assay: MMP assay in human neural stem cells (hNSC); format: cell-based; conditions: for IC50: read-out: hNSC IC50 (MMP)
[2] = test system: HepG2 cells; assay: ROS-Glo hydrogen peroxide (ROS) assay; format: cell-based, human; conditions: for EC50: read-out: ROS (HepG2) EC50
[3] = test system: HepG2 cells; assay: Intracellular ATP content (cell viability) assay; format: cell-based, human
[4] = test system: p53 (p53-bla HCT-116 cells); assay: p53 β-lactamase reporter gene assay; format: cell-based, human
[5] = test system: Nrf2/ARE (ARE-bla HepG2 cells); assay: ARE β-lactamase reporter gene assay; format: cell-based, human
[6] = test system: isolated rat liver mitochondria; assay: Oxygen consumption, Clark-type oxygen electrode; format: biochemical
[7] = test system: HepG2 cells; assay: Oxygen consumption, Seahorse XF24 analyzer; format: cell-based, human
[8] = test system: HeLa cells expressing YFP-Parkin; assay: Parkin translocation assay; format: cell-based, human
[9] = test system: HepG2 cells
[10] = test system: rat primary hepatocytes
[11] = test system: HepG2 cells; conditions: cited from earlier work; for IC50: read-out: MMP assays IC50 (µM) qHTS-HepG2
[12] = test system: rat primary hepatocytes; assay: MMP assay in rat primary hepatocytes
[13] = test system: Caenorhabditis elegans (Bristol N2); conditions: Bristol N2 (wild type), Caenorhabditis elegans, in vivo
[14] = test system: Caenorhabditis elegans strain PE255; conditions: PE255 [sur-5::luc+::gfp; rol-6(su1006)], Caenorhabditis elegans, in vivo
[15] = test system: HepG2 cells; assay: cells; conditions: Homo sapiens
[16] = test system: Caenorhabditis elegans strain PE255; assay: In vivo C. elegans ATP status assay
[17] = test system: Caenorhabditis elegans (Bristol N2); assay: C. elegans larval development and growth assay
[18] = 16 h incubation, mean±SD of three experiments

With CC(C)c1cccc(C(C)C)c1N1C(=O)c2ccc(O)cc2C1=O [5HPP-33] the “hNSC (efficacy) (MMP)” value [1] was 12.1±1.39 ( −107±4.15 ) %, the IC50 [1] was 12.1 µM and the “ROS (HepG2) (efficacy)” value [2] was 37.1±2.42 ( 37.6±1.63 ) %. For the same compound, the EC50 [2] was 37.1 µM, the “ATP (HepG2, galactose) (efficacy)” value [3] was 39.7±2.69 ( −66.5±7.10 ) % and the “ATP (HepG2, glucose) (efficacy)” value [3] was 51.2±14.4 ( −67.7±3.67 ) %. For the same compound, the IC50 ([3]; read-out: ATP (HepG2, galactose) IC50) was 39.7 µM, the IC50 ([3]; read-out: ATP (HepG2, glucose) IC50) was 51.2 µM and the EC50 [4, 18] was 1.73 ± 0.19 µM. The “p53 (HCT-116) (efficacy)” value ([4]; % of positive control) was 76.9±9.78%, the EC50 ([5]; 16 h incubation, mean±SD of three experiments, read-out: ARE (HepG2) EC50) was 25.3 ± 1.74 µM and the “ARE (HepG2) (efficacy)” value ([5]; % of positive control) was 54.9±7.97%. The “Potential Mechanism” value [6] was “Uncoupler at low concentration (20 µM), and uncoupler + inhibitor at high concentration (100 µM)”, the “I-ADP, % of control (O2 consumption rate)” value ([6]; 4 µM) was 107 (52.5) % of control and the “I-sub, % of control (O2 consumption rate)” value ([6]; 4 µM) was 123 (19.8) % of control. For the same compound, the “II-ADP, % of control (O2 consumption rate)” value (shortened to “II-ADP, % of control”) ([6]; 4 µM) was 89 (69.2) % of control, the “II-sub, % of control (O2 consumption rate)” value (shortened to “II-sub, % of control”) ([6]; 4 µM) was 97 (29.6) % of control and the “I-ADP, % of control (O2 consumption rate)” value ([6]; 20 µM) was 122 (60.3) % of control. For the same compound, the “I-sub, % of control (O2 consumption rate)” value ([6]; 20 µM) was 296 (47.6) % of control, the “II-ADP, % of control” value ([6]; 20 µM) was 95 (73.6) % of control and the “II-sub, % of control” value ([6]; 20 µM) was 166 (50.8) % of control. For the same compound, the “I-ADP, % of control (O2 consumption rate)” value ([6]; 100 µM) was 77 (41.0) % of control, the “I-sub, % of control (O2 consumption rate)” value ([6]; 100 µM) was 331 (44.5) % of control and the “II-ADP, % of control” value ([6]; 100 µM) was 51 (34.2) % of control. The “II-sub, % of control” value ([6]; 100 µM) was 200 (43.4) % of control, the “Activity in oxygen consumption” value [7] was “Uncoupler+inhibitor” and the Parkin recruitment [8] was “Active”. The “HepG2 (efficacy) Galactose (MMP)” value [9] was 29.4±5.02 ( −106±1.68 ) %, the “HepG2 (efficacy) Glucose (MMP)” value [9] was 20.1±3.62 ( −100±2.99 ) % and the “MMP assays efficacy (%) HepG2” value [9] was -96%. For the same compound, the IC50 ([9]; read-out: HepG2 IC50 Galactose (MMP)) was 29.4 µM, the IC50 ([9]; read-out: HepG2 IC50 Glucose (MMP)) was 20.1 µM and the IC50 ([9]; read-out: MMP assays IC50 (µM) HepG2) was 2.24 µM. For the same compound, the “Rat hepatocytes (efficacy) (MMP)” value [10] was 38.3±4.41 ( −99.8±6.08 ) %, the “MMP assays efficacy (%) qHTS-HepG2” value [11] was -97±0% and the IC50 [11] was 2.09 ± 0.87 µM. For the same compound, the IC50 ([12]; read-out: MMP assays IC50 (µM) Rat Hepatocytes) was 29.1 ± 12.2 µM and the IC50 ([12]; read-out: Rat hepatocytes IC50 (MMP)) was 38.3 µM.

Work on O=C1c2ccccc2C(=O)C1C(=O)C(c1ccccc1)c1ccc(Cl)cc1 (stereo not drawn) [Chlorophacinone] yielded an IC50 ([1]; Homo sapiens, Neural stem cell, 1 h) of 12.6 µM, an EC50 ([2]; Homo sapiens, HepG2, 2 h) of 41.7 µM and an IC50 ([3]; Homo sapiens, HepG2, 40 h, read-out: ATP (HepG2, galactose) IC50) of 41.4 µM. The IC50 ([3]; Homo sapiens, HepG2, 40 h, read-out: ATP (HepG2, glucose) IC50) was 48.2 µM, the “p53 (HCT-116) EC50” value [4, 18] was “Inactive” and the “ARE (HepG2) EC50” value [5, 18] was “Inactive”. The “Potential Mechanism” value [6] was “Uncoupler at low concentrations (0.8-4 µM), and Uncoupler + inhibitor at high concentrations (20 -100 µM)”, the “I-ADP, % of control (O2 consumption rate)” value ([6]; 0.16 µM) was 104 (45.2) % of control and the “I-sub, % of control (O2 consumption rate)” value ([6]; 0.16 µM) was 112 (14.7) % of control. The “II-ADP, % of control” value ([6]; 0.16 µM) was 97 (66.0) % of control, the “II-sub, % of control” value ([6]; 0.16 µM) was 97 (20.2) % of control and the “I-ADP, % of control (O2 consumption rate)” value ([6]; 0.8 µM) was 95 (41.2) % of control. For the same compound, the “I-sub, % of control (O2 consumption rate)” value ([6]; 0.8 µM) was 111 (14.5) % of control, the “II-ADP, % of control” value ([6]; 0.8 µM) was 107 (72.3) % of control and the “II-sub, % of control” value ([6]; 0.8 µM) was 125 (26.1) % of control. The “I-ADP, % of control (O2 consumption rate)” value ([6]; 4 µM) was 97 (42.2) % of control, the “I-sub, % of control (O2 consumption rate)” value ([6]; 4 µM) was 182 (23.9) % of control and the “II-ADP, % of control” value ([6]; 4 µM) was 87 (58.8) % of control. For the same compound, the “II-sub, % of control” value ([6]; 4 µM) was 203 (42.5) % of control, the “I-ADP, % of control (O2 consumption rate)” value ([6]; 20 µM) was 72 (31.3) % of control and the “I-sub, % of control (O2 consumption rate)” value ([6]; 20 µM) was 285 (37.3) % of control. For the same compound, the “II-ADP, % of control” value ([6]; 20 µM) was 39 (26.3) % of control, the “II-sub, % of control” value ([6]; 20 µM) was 150 (31.3) % of control and the “I-ADP, % of control (O2 consumption rate)” value ([6]; 100 µM) was 21 (11.4) % of control. The “I-sub, % of control (O2 consumption rate)” value ([6]; 100 µM) was 110 (14.8) % of control, the “II-ADP, % of control” value ([6]; 100 µM) was 15 (9.9) % of control and the “II-sub, % of control” value ([6]; 100 µM) was 61 (13.1) % of control. For the same compound, the Parkin recruitment [8] was “Inactive”, the “MMP assays efficacy (%) Rat Hepatocytes” value [10] was -86±11% and the “Rat hepatocytes (efficacy) (MMP)” value [10] was 10.5±4.28 ( −97.8±13.3 ) %. The “MMP assays efficacy (%) qHTS-HepG2” value [11] was -103±9%, the IC50 [11] was 0.64 ± 0.25 µM and the “LEC (lowest effect concentration), larval growth assay” value [13] was < 10 µM. The “LEC (lowest effect concentration), ATP assay” value [14] was < 10 µM, the IC50 ([15]; HepG2, 1 h, read-out: HepG2 IC50 Galactose (MMP)) was 46.3 µM and the IC50 ([15]; HepG2, 1 h, read-out: HepG2 IC50 Glucose (MMP)) was 27.1 µM. For the same compound, the IC50 ([15]; HepG2, read-out: MMP assays IC50 (µM) HepG2) was 3.55 µM, the Emax ([15]; HepG2, read-out: MMP assays efficacy (%) HepG2) was 109% and the “LUM: mean difference in luminescence (ATP content) relative to plate controls” value ([16]; 0.5 µM) was 0.2858. The “LUM: mean difference in luminescence (ATP content) relative to plate controls” value ([16]; 1 µM) was 0.2624, the “LUM: mean difference in luminescence (ATP content) relative to plate controls” value ([16]; 5 µM) was 0.9157 and the “LUM: mean difference in luminescence (ATP content) relative to plate controls” value ([16]; 10 µM) was 0.9688. For the same compound, the “LUM: mean difference in luminescence (ATP content) relative to plate controls” value ([16]; 25 µM) was 0.9113, the “LUM: mean difference in luminescence (ATP content) relative to plate controls” value ([16]; 50 µM) was 1.406 and the “LUM: mean difference in luminescence (ATP content) relative to plate controls” value ([16]; 75 µM) was 1.423. The “LUM: mean difference in luminescence (ATP content) relative to plate controls” value ([16]; 100 µM) was 1.347, the minimal effective concentration ([16]; Caenorhabditis elegans, read-out: LEC LUM: lowest effect concentration for luminescence, a measure of nematode ATP content) was 5 µM and the IC50 ([12]; Rattus norvegicus, Hepatocyte, 1 h, read-out: Rat hepatocytes IC50 (MMP)) was 10.5 µM. The IC50 ([12]; Rattus norvegicus, Hepatocyte, read-out: MMP assays IC50 (µM) Rat Hepatocytes) was 4.65 ± 4.78 µM, the “EXT: mean difference in nematode size relative to plate controls” value ([17]; 0.5 µM) was 0.2337 and the “EXT: mean difference in nematode size relative to plate controls” value ([17]; 1 µM) was 0.388. For the same compound, the “EXT: mean difference in nematode size relative to plate controls” value ([17]; 5 µM) was 0.7901, the “EXT: mean difference in nematode size relative to plate controls” value ([17]; 10 µM) was 1.11 and the “EXT: mean difference in nematode size relative to plate controls” value ([17]; 25 µM) was 1.457. The “EXT: mean difference in nematode size relative to plate controls” value ([17]; 50 µM) was 1.812, the “EXT: mean difference in nematode size relative to plate controls” value ([17]; 75 µM) was 1.667 and the “EXT: mean difference in nematode size relative to plate controls” value ([17]; 100 µM) was 1.868. The minimal effective concentration ([17]; Caenorhabditis elegans, read-out: LEC EXT: lowest effect concentration for extinction, a measure of nematode size) was 1 µM.
